Where a name gives a salt, the structure may show the parent alone. ± gives the standard error.
How the values were obtained:
[1] = tested on: 621-102 (TSC2-deficient); assay: relative viability vs DMSO; higher = less cytotoxic; settings: serum: 10% FBS, 72 h
[2] = tested on: 621-103 (TSC2-rescued); assay: as above; settings: serum: 10% FBS, 72 h
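Note: immortalized renal angiomyolipoma cells stably carrying empty vector or TSC2, dosed in 384-well plates in DMEM, viability normalized to vehicle-treated wells within each plate.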

Compound | relative viability ([1]; 0.0001 µM) [%] | relative viability ([1]; 0.001 µM) [%] | relative viability ([1]; 0.01 µM) [%] | relative viability ([1]; 0.1 µM) [%] | relative viability ([1]; 1 µM) [%] | relative viability ([1]; 10 µM) [%] | relative viability ([2]; 0.0001 µM) [%] | relative viability ([2]; 0.001 µM) [%] | relative viability ([2]; 0.01 µM) [%] | relative viability ([2]; 0.1 µM) [%] | relative viability ([2]; 1 µM) [%] | relative viability ([2]; 10 µM) [%]
OCCn1cc(-c2cnc3nnn(Cc4ccc5ncccc5c4)c3n2)cn1 | 103 ± 2.2 | 98.7 ± 1.2 | 89.7 ± 2.1 | 100 ± 3.4 | 96 ± 2.5 | 93.2 ± 1.2 | 104.7 ± 0.61 | 102 ± 0.94 | 101.9 ± 0.21 | 103 ± 1.6 | 103.2 ± 0.56 | 99.7 ± 2.3
CC(C)(C(=O)NCC(F)(F)C(F)(F)F)C(=O)N[C@@H]1C(=O)Nc2ccccc2-c2ccccc21 | 110 ± 1.1 | 115 ± 1.2 | 119.5 ± 0.86 | 113.8 ± 0.66 | 114.3 ± 1.1 | 113 ± 1.8 | 102.1 ± 0.81 | 104 ± 1.3 | 104.2 ± 0.26 | 106 ± 1.1 | 103.7 ± 0.41 | 101.8 ± 0.77
NCCc1ccc(O)c(O)c1 [Dopamine HCl] | 97.5 ± 9.6 | 112 ± 3.6 | 107 ± 3 | 105 ± 2.4 | 89.7 ± 7.8 | 74.1 ± 1.9 | 102.3 ± 0.35 | 99.6 ± 4.5 | 99 ± 1.9 | 100.1 ± 1 | 92.8 ± 2 | 95.4 ± 3.1
COC(=O)Nc1nc2cc(Sc3ccccc3)ccc2[nH]1 [Fenbendazole (Panacur)] | 114 ± 2 | 109.5 ± 0.17 | 98.4 ± 4.1 | 91.8 ± 1.4 | 38.2 ± 1.4 | 39.5 ± 0.88 | 108 ± 3.3 | 102 ± 3.8 | 110.5 ± 0.51 | 102 ± 2.8 | 44.28 ± 0.059 | 40.924 ± 0.025
Cn1cc(-c2ccc3nnc(C(F)(F)c4ccc5ncccc5c4)n3n2)cn1 | 101 ± 1.6 | 100.8 ± 0.26 | 99.2 ± 1.3 | 95.7 ± 1.9 | 96.8 ± 4.5 | 98.19 ± 0.64 | 102 ± 1.7 | 101 ± 1.4 | 100.6 ± 0.28 | 100.3 ± 0.23 | 100.3 ± 0.95 | 98.25 ± 0.26
COC(=O)N1CCN(Cc2cccc(NC(=O)Nc3ccc(C)nc3)c2F)CC1 | 93.8 ± 5.1 | 94.7 ± 5.8 | 97.5 ± 0.16 | 96.33 ± 0.19 | 85.15 ± 0.1 | 95.3 ± 1.4 | 103 ± 5.3 | 111 ± 1.7 | 110 ± 1.2 | 101 ± 2.6 | 108 ± 2.7 | 104 ± 2.6
Oc1c2ccccc2c2c3c(cccc13)N=N2 | 104.7 ± 0.13 | 103 ± 4.5 | 105 ± 1.1 | 103 ± 1.3 | 102 ± 4 | 83.3 ± 2.2 | 100.6 ± 0.42 | 101 ± 1.9 | 101.1 ± 0.35 | 100.1 ± 0.67 | 98.2 ± 1.6 | 95.2 ± 2.7
Cc1ccccc1-n1c(Cn2ncc3c(N)ncnc32)nc2cccc(C)c2c1=O [PIK-293] | 75.5 ± 1.2 | 114 ± 4.8 | 108 ± 1.3 | 118.8 ± 0.73 | 111.4 ± 0.27 | 108 ± 5.3 | 99.57 ± 0.92 | 99.6 ± 1.1 | 98.74 ± 0.94 | 98.35 ± 0.28 | 98.9 ± 1.9 | 94.1 ± 1.5
CC1=C2C[C@H]3[C@@H](CC=C4C[C@@H](O)CC[C@@]43C)[C@@H]2CC[C@]12O[C@@H]1C[C@H](C)CN[C@H]1[C@H]2C [Cyclopamine] | 107 ± 4 | 95.64 ± 0.15 | 99.7 ± 0.74 | 103 ± 1.3 | 112.9 ± 0.35 | 95.49 ± 0.81 | 100 ± 1.7 | 101 ± 1.4 | 98.16 ± 0.86 | 100.3 ± 0.2 | 99.22 ± 0.46 | 98.9 ± 2.2
CCCN[C@H]1CCc2nc(N)sc2C1 [Pramipexole dihydrochloride monohydrate] | 91.3 ± 7.3 | 84.5 ± 4.2 | 101 ± 2.4 | 102 ± 1.4 | 91.4 ± 1.3 | 94.4 ± 1.9 | 98.1 ± 4.4 | 95.62 ± 0.72 | 101 ± 2.9 | 101 ± 1.8 | 105 ± 2.4 | 100.5 ± 0.52
COC(=O)Nc1ccc(-c2nc(N3CCOCC3)c3cnn(C4CCN(C(=O)OC)CC4)c3n2)cc1 [WYE-354] | 89.9 ± 1.9 | 84.2 ± 1.1 | 79.5 ± 4.5 | 84.3 ± 5.7 | 49.3 ± 3.1 | 61.2 ± 3.3 | 102 ± 1.1 | 103.2 ± 0.11 | 102 ± 1.2 | 105.7 ± 1 | 68.1 ± 0.21 | 74.5 ± 2.2
C#CCN(C)[C@H](C)Cc1ccccc1 [Selegiline HCl] | 81.4 ± 7.3 | 80.4 ± 9.2 | 91.8 ± 7.5 | 102 ± 1.1 | 95.7 ± 3 | 88.1 ± 1.8 | 95.9 ± 3.1 | 92.55 ± 0.61 | 100 ± 1.2 | 109 ± 2.5 | 102 ± 3.7 | 79.5 ± 0.86
COc1cccc2c1C(=O)c1c(O)c3c(c(O)c1C2=O)C[C@@](O)(C(=O)CO)C[C@@H]3O[C@H]1C[C@H](N)[C@H](O)[C@H](C)O1 [Adriamycin] | 102 ± 2 | 93.5 ± 5.5 | 71.1 ± 1.7 | 65.1 ± 2.7 | 17.4 ± 2.1 | 5.59 ± 0.56 | 102.4 ± 0.79 | 103 ± 1.9 | 87.9 ± 3.1 | 60.3 ± 1.4 | 13.01 ± 0.075 | 12 ± 0.24
CC(C)(C)c1[nH]cnc1/C=c1\[nH]c(=O)/c(=C/c2ccccc2)[nH]c1=O [NPI-2358] | 88.4 ± 2.1 | 50.4 ± 2 | 55.9 ± 1.8 | 42 ± 0.5 | 36.5 ± 2 | 41.3 ± 2.3 | 86.9 ± 4.1 | 45.4 ± 0.88 | 62 ± 1.6 | 36.2 ± 0.99 | 32.4 ± 0.92 | 33.1 ± 0.41
CC(/C=C/C(=O)NO)=C\[C@@H](C)C(=O)c1ccc(N(C)C)cc1 [Trichostatin A] | 113.6 ± 0.35 | 117 ± 1.7 | 117.6 ± 0.42 | 104.3 ± 0.83 | 110 ± 1.2 | 74.9 ± 3.8 | 100.8 ± 0.21 | 101 ± 1.4 | 98.31 ± 0.47 | 99.71 ± 0.22 | 96.9 ± 1.4 | 44.8 ± 2.1
CO/N=C(\C(=O)N[C@@H]1C(=O)N2C(C(=O)O)=C(CSC(=O)c3ccco3)CS[C@H]12)c1csc(N)n1 [Ceftiofur HCl] | 116 ± 6.8 | 112.1 ± 0.33 | 123 ± 2 | 117 ± 5.6 | 116 ± 2 | 110 ± 1.9 | 98.6 ± 4.3 | 99.23 ± 0.84 | 94.4 ± 3 | 97.5 ± 5.2 | 94.3 ± 1.6 | 94.2 ± 3.3
CN(c1ncccc1CNc1nc(Nc2ccc3c(c2)CC(=O)N3)ncc1C(F)(F)F)S(C)(=O)=O | 99.84 ± 0.61 | 105 ± 2.5 | 97.1 ± 2.1 | 101 ± 1.2 | 94.8 ± 5.8 | 47.7 ± 8.3 | 106 ± 4.2 | 94.4 ± 5.1 | 102 ± 0.37 | 100.6 ± 0.65 | 97.5 ± 6.1 | 38.2 ± 5.9
Nc1ccc(S(N)(=O)=O)cc1 [Sulfanilamide] | 94.3 ± 1.1 | 108 ± 5.2 | 97.7 ± 2.6 | 99 ± 1.8 | 99.8 ± 2.5 | 92.9 ± 1.2 | 102 ± 3.3 | 102 ± 0.77 | 104 ± 1.8 | 106 ± 1.9 | 101 ± 2.4 | 96.1 ± 2.9
O=C(O)c1ccc2c(c1)nc(Nc1cccc(Cl)c1)c1ccncc12 [CX-4945] | 95 ± 3.3 | 93.1 ± 1.6 | 102 ± 2.2 | 103.8 ± 0.2 | 101 ± 2.9 | 80.4 ± 0.94 | 109 ± 5.8 | 106.3 ± 0.77 | 111 ± 7.9 | 106 ± 3 | 104 ± 3.2 | 72.54 ± 0.24
Cc1cccc(-c2nn3c(c2-c2ccnc4ccc(C(N)=O)cc24)CCC3)n1 | 97.6 ± 7.5 | 87.2 ± 2 | 95.57 ± 0.43 | 109 ± 5.5 | 96 ± 2.2 | 93.9 ± 4.6 | 102.4 ± 0.59 | 93.4 ± 3.5 | 97.8 ± 2.9 | 97.7 ± 2.5 | 99.2 ± 0.91 | 106 ± 1.6

— the supplement of paper PMC8960247
